Measured values reported in US20070293434A9, “Binding polypeptides and methods based thereon” (priority 2000, published 2007).

Molecular target: BLyS (Homo sapiens, UniProt Q9Y275)
Test: Fluorescence anisotropy determination of BLyS-ligand dissociation constants
Type: binding
Method: Dissociation constants between the synthetic peptides and BLyS (free in solution) were measured by fluorescence anisotropy (FA). In these experiments, the concentration of the fluorescein-labeled peptide is held constant and the BLyS protein concentration was varied. […] Binding reactions containing 50 nM fluorescein-labeled peptide and a varied concentration of BLyS in a volume between 10 and 20 μL per well were performed in 384 well microplates. Reactions were assayed using a Tecan Polarion fluorescence polarization plate reader. Cross-competition studies between peptides were performed using 50 nM fluorescein-labeled peptide and 1-2 μM BLyS in the presence and absence of 100 μM unlabeled peptide. […] Other buffers in which dissociation constants of BLyS Binding polypeptides were […] include: […] […] The KD of several BLyS binding BAML peptides was determined by fluorescence anisotropy, performed as previously described.

Chain of BLyS (Q9Y275 134-285 limits assumed): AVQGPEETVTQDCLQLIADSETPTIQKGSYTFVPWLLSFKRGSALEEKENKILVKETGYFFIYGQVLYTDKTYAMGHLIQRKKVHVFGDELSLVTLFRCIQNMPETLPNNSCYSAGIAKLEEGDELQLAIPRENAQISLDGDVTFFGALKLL

Row | Substance | decrease in affinity compared to DX814 (compared to DX814) | improvement in binding affinity for BLyS as compared to 453-01-B07 (compared to 453-01-B07 (SEQ ID NO:31))
1 | Ac-ANWYDPLTKLSLPDGGK-fitc [DX818] | approximately 10 fold | –
2 | Ac-ANWYDSLTKLWLPDGGK-fitc [DX822] | – | more than 10 fold
